SMILES strings stand for the structures.

Usually EC50 stands for the midpoint of the concentration-response curve.

T1 sequence (P13569 with tags, fused parts or gaps DEL508-508): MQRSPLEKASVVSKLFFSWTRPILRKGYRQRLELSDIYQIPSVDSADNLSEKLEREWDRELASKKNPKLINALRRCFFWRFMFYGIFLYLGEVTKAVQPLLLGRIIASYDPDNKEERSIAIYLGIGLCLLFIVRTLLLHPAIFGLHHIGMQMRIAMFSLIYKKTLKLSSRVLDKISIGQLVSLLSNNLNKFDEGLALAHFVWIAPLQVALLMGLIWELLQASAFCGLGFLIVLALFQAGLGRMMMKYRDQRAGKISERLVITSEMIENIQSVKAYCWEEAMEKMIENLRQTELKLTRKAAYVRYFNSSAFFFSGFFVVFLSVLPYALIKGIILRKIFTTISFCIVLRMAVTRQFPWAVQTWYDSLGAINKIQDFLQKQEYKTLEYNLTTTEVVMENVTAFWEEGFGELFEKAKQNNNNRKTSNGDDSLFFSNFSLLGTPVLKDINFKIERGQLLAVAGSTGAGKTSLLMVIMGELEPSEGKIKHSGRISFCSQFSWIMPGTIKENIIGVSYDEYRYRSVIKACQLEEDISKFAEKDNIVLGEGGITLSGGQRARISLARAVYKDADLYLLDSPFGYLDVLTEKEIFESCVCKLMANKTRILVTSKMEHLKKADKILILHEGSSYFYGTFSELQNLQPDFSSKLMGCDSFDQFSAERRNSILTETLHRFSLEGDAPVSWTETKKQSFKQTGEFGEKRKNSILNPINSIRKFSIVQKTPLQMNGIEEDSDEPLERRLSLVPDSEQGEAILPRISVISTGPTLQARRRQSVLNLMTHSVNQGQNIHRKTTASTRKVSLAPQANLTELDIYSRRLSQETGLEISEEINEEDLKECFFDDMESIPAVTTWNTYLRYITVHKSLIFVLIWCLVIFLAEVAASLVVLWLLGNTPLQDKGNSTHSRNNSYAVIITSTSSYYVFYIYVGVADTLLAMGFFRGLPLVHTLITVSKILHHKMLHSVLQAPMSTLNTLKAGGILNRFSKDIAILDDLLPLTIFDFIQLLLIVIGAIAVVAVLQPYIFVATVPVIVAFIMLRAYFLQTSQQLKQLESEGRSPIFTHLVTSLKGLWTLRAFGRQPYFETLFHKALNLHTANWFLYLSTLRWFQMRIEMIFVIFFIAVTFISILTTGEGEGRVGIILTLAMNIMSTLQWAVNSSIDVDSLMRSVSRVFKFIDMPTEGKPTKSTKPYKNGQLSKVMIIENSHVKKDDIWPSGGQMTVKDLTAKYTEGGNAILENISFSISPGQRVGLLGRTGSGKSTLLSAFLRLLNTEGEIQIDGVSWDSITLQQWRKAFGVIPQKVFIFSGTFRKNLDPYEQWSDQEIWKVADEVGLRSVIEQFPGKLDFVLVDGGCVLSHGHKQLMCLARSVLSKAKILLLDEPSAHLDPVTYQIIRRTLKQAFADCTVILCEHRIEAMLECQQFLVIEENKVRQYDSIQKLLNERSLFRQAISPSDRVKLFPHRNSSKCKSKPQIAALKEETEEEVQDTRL

This assay concerns the target T1, CFTR in F508del/MF-HBE cells (Homo sapiens, UniProt P13569, DEL508-508).
T1 construct: human bronchial epithelial (HBE) cells derived from CF subjects heterozygous for F508del and a minimal function CFTR mutation; endogenous in cells; host or cells: primary human bronchial epithelial cells from CF subjects (F508del/MF-HBE)
As to the kind of experiment: Ussing chamber assay of CFTR-mediated short-circuit currents (identification of potentiator compounds). It is filed as cell-based. The conditions noted are these: potentiator incubated 18-24 hours at 37° C. in combination with 10 μM corrector, in the presence of 20% human serum, CFTR-mediated ISC. Here is the method:
Ussing chamber experiments were performed using human bronchial epithelial (HBE) cells derived from CF subjects heterozygous for F508del and a minimal function CFTR mutation (F508del/MF-HBE) and cultured as previously described (Neuberger T, Burton B, Clark H, Van Goor F; Methods Mol. Biol. 2011:741:39-54). After four days the apical media was removed, and the cells were grown at an air liquid interface for >14 days prior to use.
To isolate the CFTR-mediated short-circuit (ISC) current, F508del/MF-HBE grown on Costar® Snapwell™ cell culture inserts were mounted in an Ussing chamber and the transepithelial ISC was measured under voltage-clamp recording conditions (Vhold=0 mV) at 37° C. The basolateral solution contained (in mM) 145 NaCl, 0.83 K2HPO4, 3.3 KH2PO4, 1.2 MgCl2, 1.2 CaCl2), 10 Glucose, 10 HEPES (pH adjusted to 7.4 with NaOH) and the apical solution contained (in mM) 145 NaGluconate, 1.2 MgCl2, 1.2 CaCl2), 10 glucose, 10 HEPES (pH adjusted to 7.4 with NaOH) and 30 μM amiloride to block the epithelial sodium channel. Forskolin (20 μM) was added to the apical surface to activate CFTR, followed by apical addition of a CFTR inhibitor cocktail consisting of BPO, GlyH-101 and CFTR inhibitor 172 (each at 20 μM final assay concentration) to specifically isolate CFTR currents. The CFTR-mediated ISC (μA/cm^2) for each condition was determined from the peak forskolin response to the steady-state current following inhibition.
The activity of the CFTR potentiator compounds on the CFTR-mediated ISC was determined in Ussing chamber studies as described above. The F508del/MF-HBE cell cultures were incubated with the potentiator compounds at a range of concentrations in combination with 10 μM (14S)-8-[3-(2-{dispiro[2.0.2.1]heptan-7-yl}ethoxy)-1H-pyrazol-1-yl]-12,12-dimethyl-2λ^6-thia-3,9,11,18,23-pentaazatetracyclo[17.3.1.111,14.05,10]tetracosa-1(22),5,7,9,19(23),20-hexaene-2,2,4-trione for 18-24 hours at 37° C. and in the presence of 20% human serum. The concentration of potentiator compounds and (14S)-8-[3-(2-{dispiro[2.0.2.1]heptan-7-yl}ethoxy)-1H-pyrazol-1-yl]-12,12-dimethyl-2λ^6-thia-3,9,11,18,23-pentaazatetracyclo[17.3.1.111,14.05,10]tetracosa-1(22),5,7,9,19(23),20-hexaene-2,2,4-trione used during the 18-24 hours incubations was kept constant throughout the Ussing chamber measurement of the CFTR-mediated ISC to ensure compounds were present throughout the entire experiment. The efficacy and potency of the putative F508del potentiators was compared to that of the known potentiator, ivacaftor (N-[2,4-bis(1,1-dimethylethyl)-5-hydroxyphenyl]-1,4-dihydro-4-oxoquinoline-3-carboxamide).
Turning to `Nc1cc(C(F)(F)F)c2nc1-c1nnc(o1)[C@@](O)(C(F)(F)F)CCCCCCC2=NO` (single isomer, unassigned) [Compound 31], the EC50 was less than 500 nM.
Turning to `Nc1cc(C(F)(F)F)c2nc1-c1nnc(o1)C(O)(C(F)(F)F)CCCCCCC1=NN=C2O1` (single isomer, unassigned) [Compound 32, 20-amino-6,18-bis(trifluoromethyl)-22,23-dioxa-3,4,14,15,21-pentaazatetracyclo[15.3.1.12,5.113,16]tricosa-1(21),2,4,13,15,17,19-heptaen-6-ol], the EC50 was less than 500 nM.
Consider `Nc1cc(C(F)(F)F)c2nc1-c1nnc(o1)C(O)(C(F)(F)F)CCCCCCC1=NN=C2O1` (single isomer, unassigned) [Compound 33, 20-amino-6,18-bis(trifluoromethyl)-22,23-dioxa-3,4,14,15,21-pentaazatetracyclo[15.3.1.12,5.113,16]tricosa-1(21),2,4,13,15,17,19-heptaen-6-ol], for which the EC50 was more than 1000 nM.
Consider `Nc1cc(C(F)(F)F)c2nc1-c1nnc(o1)C(O)(C(F)(F)F)CCC(=O)CCCC2=O` (single isomer, unassigned) [Compound 34, 17-amino-6-hydroxy-6,15-bis(trifluoromethyl)-19-oxa-3,4,18-triazatricyclo[12.3.1.12,5]nonadeca-1(18),2,4,14,16-pentaene-9,13-dione], for which the EC50 was less than 500 nM.
Then `Nc1cc(C(F)(F)F)c2nc1-c1nnc(o1)C(O)(C(F)(F)F)CCC(=O)CCCC2=O` (single isomer, unassigned) [Compound 35, 17-amino-6-hydroxy-6,15-bis(trifluoromethyl)-19-oxa-3,4,18-triazatricyclo[12.3.1.12,5]nonadeca-1(18),2,4,14,16-pentaene-9,13-dione], with more than 1000 nM; and `Nc1cc(C(F)(F)F)c2nc1-c1nnc(o1)C(O)(C(F)(F)F)CCCC(=O)CCC2=O` (single isomer, unassigned) [Compound 36, 17-amino-6-hydroxy-6,15-bis(trifluoromethyl)-19-oxa-3,4,18-triazatricyclo[12.3.1.12,5]nonadeca-1(18),2,4,14,16-pentaene-10,13-dione], with more than 1000 nM; and `Nc1cc(C(F)(F)F)c2nc1-c1nnc(o1)C(O)(C(F)(F)F)CCCC(=O)CCC2=O` (single isomer, unassigned) [Compound 37, 17-amino-6-hydroxy-6,15-bis(trifluoromethyl)-19-oxa-3,4,18-triazatricyclo[12.3.1.12,5]nonadeca-1(18),2,4,14,16-pentaene-10,13-dione], with more than 1000 nM.
Take `CC1CCCCC[C@](O)(C(F)(F)F)C2=NN=C(O2)c2nc(c(C(F)(F)F)cc2N)C1` (single isomer, unassigned) [Compound 55]: the EC50 was less than 500 nM.
On to `CC1CCCCC[C@](O)(C(F)(F)F)C2=NN=C(O2)c2nc(c(C(F)(F)F)cc2N)C1` (single isomer, unassigned) [Compound 56], for which the EC50 was less than 500 nM.
For `Nc1cc(C(F)(F)F)c2nc1-c1nnc(o1)C(O)(C(F)(F)F)c1cc(ccc1F)CCCCC2=O` (single isomer, unassigned) [Compound 57, 20-amino-8-fluoro-6-hydroxy-6,18-bis(trifluoromethyl)-23-oxa-3,4,21-triazatetracyclo[15.3.1.12,5.17,11]tricosa-1(21),2,4,7(22),8,10,17,19-octaen-16-one], the EC50 is less than 500 nM.
In the case of `Nc1cc(C(F)(F)F)c2nc1-c1nnc(o1)C(O)(C(F)(F)F)c1cc(ccc1F)CCCCC2=O` (single isomer, unassigned) [Compound 58, 20-amino-8-fluoro-6-hydroxy-6,18-bis(trifluoromethyl)-23-oxa-3,4,21-triazatetracyclo[15.3.1.12,5.17,11]tricosa-1(21),2,4,7(22),8,10,17,19-octaen-16-one] it was 500 to 1000 nM; in that of `Nc1cc(C(F)(F)F)c2nc1-c1nnc(o1)C(O)(C(F)(F)F)c1cc(ccc1F)C=CCCC2=O` (single isomer, unassigned) [Compound 59, 20-amino-8-fluoro-6-hydroxy-6,18-bis(trifluoromethyl)-23-oxa-3,4,21-triazatetracyclo[15.3.1.12,5.17,11]tricosa-1(21),2,4,7(22),8,10,12,17,19-nonaen-16-one], more than 1000 nM.
Turning to `Nc1cc(C(F)(F)F)c2nc1-c1nnc(o1)C(O)(C(F)(F)F)c1cc(ccc1F)C=CCCC2=O` (single isomer, unassigned) [Compound 60, 20-amino-8-fluoro-6-hydroxy-6,18-bis(trifluoromethyl)-23-oxa-3,4,21-triazatetracyclo[15.3.1.12,5.17,11]tricosa-1(21),2,4,7(22),8,10,12,17,19-nonaen-16-one], the EC50 is less than 500 nM.
For `N#CC1CCCCc2ccc(F)c(c2)C(O)(C(F)(F)F)C2=NN=C(O2)c2nc1c(C(F)(F)F)cc2N` (single isomer, unassigned) [Compound 67, 20-amino-8-fluoro-6-hydroxy-6,18-bis(trifluoromethyl)-23-oxa-3,4,21-triazatetracyclo[15.3.1.12,5.17,11]tricosa-1(21),2,4,7,9,11(22),17,19-octaene-16-carbonitrile], the concentration for a half-maximal effect (EC50) was less than 500 nM.
In the case of `N#CC1CCCCc2ccc(F)c(c2)C(O)(C(F)(F)F)C2=NN=C(O2)c2nc1c(C(F)(F)F)cc2N` (single isomer, unassigned) [Compound 68, 20-amino-8-fluoro-6-hydroxy-6,18-bis(trifluoromethyl)-23-oxa-3,4,21-triazatetracyclo[15.3.1.12,5.17,11]tricosa-1(21),2,4,7,9,11(22),17,19-octaene-16-carbonitrile], the concentration giving a half-maximal response (EC50) was less than 500 nM.
In the case of `Nc1cc(C(F)(F)F)c2nc1-c1nnc(o1)C(F)(C(F)(F)F)CCCCCCC2=O` (single isomer, unassigned) [Compound 71, 17-amino-6-fluoro-6,15-bis(trifluoromethyl)-19-oxa-3,4,18-triazatricyclo[12.3.1.12,5]nonadeca-1(18),2,4,14,16-pentaen-13-one] it was more than 1000 nM.
As to `CN1CCCCCC(O)(C(F)(F)F)C2=NN=C(O2)c2nc(c(C(F)(F)F)cc2N)C1=O` (single isomer, unassigned) [Compound 72, 17-Amino-6-hydroxy-12-methyl-6,15-bis(trifluoromethyl)-19-oxa-3,4,12,18-tetrazatricyclo[12.3.1.12,5]nonadeca-1(18),2,4,14,16-pentaen-13-one], the EC50 was less than 500 nM.
As for `CN1CCCCCC(O)(C(F)(F)F)C2=NN=C(O2)c2nc(c(C(F)(F)F)cc2N)C1=O` (single isomer, unassigned) [Compound 73, 17-amino-6-hydroxy-12-methyl-6,15-bis(trifluoromethyl)-19-oxa-3,4,12,18-tetrazatricyclo[12.3.1.12,5]nonadeca-1(18),2,4,14,16-pentaen-13-one], the EC50 is more than 1000 nM.
In the case of `Nc1cc(C(F)(F)F)c2nc1-c1nnc(o1)C(O)(C(F)(F)F)CCCCCN(Cc1ccccc1)C2=O` (single isomer, unassigned) [Compound 74, 17-Amino-12-benzyl-6-hydroxy-6,15-bis (trifluoromethyl)-19-oxa-3,4,12,18-tetrazatricyclo [12.3.1.12,5] nonadeca-1(18),2,4,14,1 6-pentaen-13-one] it was less than 500 nM.
In the case of `Nc1cc(C(F)(F)F)c2nc1-c1nnc(o1)C(O)(C(F)(F)F)CCCCCN(C1CCC1)C2=O` (single isomer, unassigned) [Compound 78, 17-Amino-12-cyclobutyl-6-hydroxy-6,15-bis (trifluoromethyl)-19-oxa-3,4,12,18-tetrazatricyclo [12.3.1.12,5] nonadeca-1(18),2,4,14,1 6-pentaen-13-one] it was less than 500 nM.
In the case of `CC1(C)CCC2CCCC[C@](O)(C(F)(F)F)C3=NN=C(O3)c3nc(c(C(F)(F)F)cc3N)C(=O)N21` (single isomer, unassigned) [Compound 114] it was less than 500 nM; in that of `CC1(C)CCC2CCCC[C@](O)(C(F)(F)F)C3=NN=C(O3)c3nc(c(C(F)(F)F)cc3N)C(=O)N21` (single isomer, unassigned) [Compound 115], less than 500 nM.

Values taken from patent US20250122218A1, “MODULATORS OF CYSTIC FIBROSIS TRANSMEMBRANE CONDUCTANCE REGULATOR” (Vertex Pharmaceuticals Incorporated, priority 2022, published 2025).
